# Assay: Dispersion of material on exposure to aqueous medium (visual)
# Format: physicochemical
# Conditions: dye not incorporated into a porous body
compound,measurement,value
CCNc1ccc2ccccc2c1N=Nc1ccc(N=Nc2ccccc2)cc1 [Fat red 7B dye],dispersion or solubility of the dye alone in water,particles of dye remained at the bottom of the vessel
